ChEMBL document CHEMBL1201862, “PubChem BioAssay data set” (2004)
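Each compound was tested at five concentrations against cells in 96-well plates for 48 hours. GI50 = concentration required for 50% inhibition of growth.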 Calls of active or inactive are those of the source. Cut-off read from the data, not from the text of the source: active = GI50 up to about 1.1 µM and inactive = higher.

Assays:
Assay in all cases: DTP human tumour cell line panel, 48 h
SK-MEL-5 = system: SK-MEL-5
SN12C = system: SN12C
RPMI-8226 = system: RPMI-8226
U-251 = system: U-251
OVCAR-4 = system: OVCAR-4
HCT-116 = system: HCT-116
IGROV-1 = system: IGROV-1
KM12 = system: KM12
COLO 205 = system: COLO 205
HOP-62 = system: HOP-62
SF-539 = system: SF-539
SK-OV-3 = system: SK-OV-3
Malme-3M = system: Malme-3M
SNB-75 = system: SNB-75
MDA-MB-231 = system: MDA-MB-231
MCF7 = system: MCF7
DU-145 = system: DU-145
MDA-N = system: MDA-N

Measured: GI50

C=C1CC2C(=O)N(c3ccccc3)C(=O)C2CC1n1[nH]c(=O)n(Cc2ccccc2)c1=O (centres undefined)
inactive: SK-MEL-5 > 100 µM | SN12C > 100 µM | RPMI-8226 > 100 µM | U-251 > 100 µM | OVCAR-4 > 100 µM | HCT-116 > 100 µM | IGROV-1 > 100 µM | KM12 > 100 µM | COLO 205 > 100 µM | HOP-62 > 100 µM | SF-539 > 100 µM | SK-OV-3 > 100 µM | Malme-3M > 100 µM | SNB-75 > 100 µM

O=c1/c(=C/c2ccco2)sc2nc3ccccc3n12
inactive: SK-MEL-5 > 10 µM | SN12C > 10 µM | RPMI-8226 > 10 µM | U-251 > 10 µM | OVCAR-4 > 10 µM | HCT-116 > 10 µM | IGROV-1 > 10 µM | KM12 > 100 µM | COLO 205 > 100 µM | HOP-62 > 100 µM | SF-539 > 10 µM | SK-OV-3 > 100 µM | Malme-3M > 10 µM | SNB-75 27 µM

COc1ccc(/C=C2\CCC(C)C3=C2N=c2s/c(=C/c4cccc(Br)c4)c(=O)n2C3c2ccc(OC)c(OC)c2)cc1OC (centres undefined)
inactive: SK-MEL-5 > 100 µM | SN12C > 100 µM | RPMI-8226 > 100 µM | U-251 > 100 µM | OVCAR-4 > 100 µM | MDA-MB-231 > 100 µM | HCT-116 > 100 µM | MCF7 > 100 µM | IGROV-1 > 100 µM | KM12 > 100 µM | HOP-62 > 100 µM | SK-OV-3 > 100 µM | DU-145 > 100 µM | MDA-N > 100 µM

Cc1ccc(S(=O)(=O)N/N=C(\c2nc3ccc([N+](=O)[O-])cc3nc2O)C(O)c2ccccc2Cl)cc1 (centres undefined)
inactive: SK-MEL-5 55.3 µM | SN12C > 100 µM | RPMI-8226 61.1 µM | U-251 > 100 µM | OVCAR-4 > 100 µM | HCT-116 > 100 µM | IGROV-1 > 100 µM | KM12 93.8 µM | COLO 205 > 100 µM | HOP-62 > 100 µM | SF-539 > 100 µM | SK-OV-3 > 100 µM | Malme-3M > 100 µM | SNB-75 > 100 µM

COC(=O)C(C(=O)C(=O)Nc1ccccc1C)c1nc2ccc([N+](=O)[O-])cc2nc1O (centres undefined)
inactive: SK-MEL-5 > 100 µM | SN12C > 100 µM | RPMI-8226 > 100 µM | U-251 > 100 µM | OVCAR-4 > 100 µM | HCT-116 > 100 µM | IGROV-1 > 100 µM | KM12 > 100 µM | COLO 205 > 100 µM | HOP-62 > 100 µM | SF-539 > 100 µM | SK-OV-3 > 100 µM | Malme-3M > 100 µM | SNB-75 > 100 µM

CC(=O)OC[C@@H](COC(=O)/C=C/c1ccc(O)cc1)OC1OC(CO)C(O)C(O)C1O (some centres undefined)
inactive: SK-MEL-5 > 100 µM | SN12C > 100 µM | RPMI-8226 > 100 µM | U-251 > 100 µM | OVCAR-4 > 100 µM | HCT-116 > 100 µM | IGROV-1 > 100 µM | KM12 > 100 µM | COLO 205 > 100 µM | HOP-62 > 100 µM | SF-539 > 100 µM | SK-OV-3 > 100 µM | Malme-3M > 100 µM | SNB-75 > 100 µM | DU-145 > 100 µM

Cc1ccc2nc3c(C(=O)NCCN(C)C)cccc3nc2c1
inactive: SK-MEL-5 4.6 µM | SN12C 3.42 µM | RPMI-8226 3.6 µM | U-251 5.55 µM | OVCAR-4 4.69 µM | HCT-116 1.59 µM | IGROV-1 7.03 µM | KM12 3.94 µM | COLO 205 2.59 µM | HOP-62 3.85 µM | SF-539 4.2 µM | SK-OV-3 14.8 µM | Malme-3M 2.47 µM | SNB-75 5.48 µM
